In patent publication US12157730B2, “Heteroaryl derivative, method for producing same, and pharmaceutical composition comprising same as effective component” (VORONOI INC., priority 2019, dated 2024):

Molecular target: T1, Ba/F3 cell EGFR Exon20 ins NPH (Homo sapiens, UniProt P00533, INS773NPH)
T1 construct: expressed in transfected cells; host or cells: Ba/F3
Experiment: Ba/F3 cell proliferation suppression, EGFR Exon20 ins NPH
Format: cell-based
Conditions: GI50 class; Ba/F3 cell line with NPH inserted at Exon20 of EGFR; 72 hours
In short: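 Seed 3000–5000 cells/well; after 24 h add compound (12 conc., 0.3 nM–50 um final); incubate 72 h; add CellTiter-Glo, 10 min room temperature; read luminescence; GI50 from % growth vs control, triplicate.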

Row | SMILES | Ba/F3 (NPH) Activity
1 | C=CC(=O)Nc1cc(Nc2cc(N3OCC[C@@H]3c3cccc(C(F)(F)F)c3)ncn2)c(OC)cc1N1CCC(N2CCOCC2)CC1 [compound 504, N-(4-methoxy-2-(4-morpholinopiperidine-1-yl)-5-((6-((R)-3-(3-(trifluoromethyl)phenyl)isoxazolidine-2-yl)pyrimidine-4-yl)amino)phenyl)acrylamide] | A (GI50 < 50 nM)
2 | C=CC(=O)Nc1cc(Nc2cc(N3OCC[C@@H]3c3cccc(C)c3F)ncn2)c(OC)cc1N1CCOCC1 [compound 844, N-(5-((6-((R)-3-(2-fluoro-3-methylphenyl)isoxazolidine-2-yl)pyrimidine-4-yl)amino)-4-methoxy-2-morpholinophenyl) acrylamide] | A (GI50 < 50 nM)
3 | C=CC(=O)Nc1cc(Nc2cc(N3OCC[C@@H]3c3ccc(F)cc3F)ncn2)c(OC)cc1N1CCC(N2CCN(C(C)C)CC2)CC1 [compound 428, N-(5-((6-((R)-3-(2,4-difluorophenyl)isoxazolidine-2-yl)pyrimidine-4-yl)amino)-2-(4-(4-isopropylpiperazine-1-yl)piperidine-1-yl)-4-methoxyphenyl) acrylamide] | A (GI50 < 50 nM)
4 | C=CC(=O)Nc1cc(Nc2cc(N3OCC[C@@H]3c3cc(F)cc(F)c3)ncn2)c(OC)cc1N1CCC(N2CCN(C3CC3)[C@@H](C)C2)CC1 [Example 110, N-(2-(4-((S)-4-cyclopropyl-3-methylpiperazine-1-yl)piperidine-1-yl)-5-((6-((R)-3-(3,5-difluorophenyl)isoxazolidine-2-yl)pyrimidine-4-yl)amino)-4-methoxyphenyl) acrylamide] | A (GI50 < 50 nM)
5 | C=CC(=O)Nc1cc(Nc2cc(N3OCC[C@@H]3c3ccc(C)nc3)ncn2)c(OC)cc1N1CCC(N2CCN(C(C)C)CC2)CC1 [Example 230, N-(2-(4-(4-isopropylpiperazine-1-yl)piperidine-1-yl)-4-methoxy-5-((6-((R)-3-(6-methylpyridine-3-yl)isoxazolidine-2-yl)pyrimidine-4-yl)amino)phenyl)acrylamide] | B (50 nM ≤ GI50 < 500 nM)
6 | C=CC(=O)Nc1cc(Nc2cc(N3OCC[C@@H]3c3cc(F)ccc3F)ncn2)c(OC)cc1N1CC[C@H](N(C)C)C1 [compound 301, N-(5-((6-((R)-3-(2,5-difluorophenyl)isoxazolidine-2-yl)pyrimidine-4-yl)amino)-2-((S)-3-(dimethylamino)pyrolidine-1-yl)-4-methoxyphenyl) acrylamide] | A (GI50 < 50 nM)
7 | C=CC(=O)Nc1cc(Nc2cc(N3OCC[C@@H]3c3ccc(Cl)c(Cl)c3)ncn2)c(OC)cc1N1C[C@H]2C[C@@H]1CN2C [compound 674, N-(5-((6-((R)-3-(3,4-dichlorophenyl)isoxazolidine-2-yl)pyrimidine-4-yl)amino)-4-methoxy-2-((1R,4R)-5-methyl-2,5-diazabicyclo[2.2.1]heptane-2-yl)phenyl) acrylamide] | A (GI50 < 50 nM)
8 | C=CCN1CCN(C2CCN(c3cc(OC)c(Nc4cc(N5OCC[C@@H]5c5cccc(Cl)c5F)ncn4)cc3NC(=O)C=C)CC2)CC1 [Example 90, N-(2-(4-(4-allylpiperazine-1-yl)piperidine-1-yl)-5-((6-(R-3-(3-chloro-2-fluorophenyl)isoxazolidine-2-yl)pyrimidine-4-yl)amino)-4-methoxyphenyl) acrylamide] | A (GI50 < 50 nM)
9 | C=CC(=O)Nc1cc(Nc2cc(N3OCC[C@@H]3c3cccc(Cl)c3)ncn2)c(OC)cc1N1CCC(N(C)C)CC1 [compound 361, N-(5-((6-((R)-3-(3-chlorophenyl)isoxazolidine-2-yl)pyrimidine-4-yl)amino)-2-(4-(dimethylamino)piperidine-1-yl)-4-methoxyphenyl) acrylamide] | A (GI50 < 50 nM)
10 | C=CC(=O)Nc1cc(Nc2cc(N3OCC[C@@H]3c3ccc(C)nc3)ncn2)c(OC)cc1N1CCOCC1 [Example 43] | B (50 nM ≤ GI50 < 500 nM)
11 | C=CC(=O)Nc1cc(Nc2cc(N3OCC[C@@H]3c3ccc(F)c(F)c3F)ncn2)c(OC)cc1N1CC[C@@H](N2CCOCC2)C1 [compound 623, N-(4-methoxy-2-((R)-3-morpholinopyrolidine-1-yl)-5-((6-((R)-3-(2,3,4-trifluorophenyl)isoxazolidine-2-yl)pyrimidine-4-yl)amino)phenyl)acrylamide] | C (500 nM ≤ GI50 < 5000 nM)
12 | C=CC(=O)Nc1cc(Nc2cc(N3OCC[C@@H]3c3cccc(F)c3)ncn2)c(OC)cc1N1CC[C@@H](N(C)C)C1 [Example 247, N-(2-((R)-3-(dimethylamino)pyrolidine-1-yl)-5-((6-((R)-3-(3-fluorophenyl)isoxazolidine-2-yl)pyrimidine-4-yl)amino)-4-methoxyphenyl) acrylamide] | A (GI50 < 50 nM)
13 | C=CC(=O)Nc1cc(Nc2cc(N3OCC[C@@H]3c3ccc(Cl)cc3)ncn2)c(OC)cc1N1CCC(N2CCC(N(C)C)CC2)CC1 [compound 808, N-(5-((6-((R)-3-(4-chlorophenyl)isoxazolidine-2-yl)pyrimidine-4-yl)amino)-2-(4-(dimethylamino)-[1,4'-bipiperidine]-1'-yl)-4-methoxyphenyl) acrylamide] | B (50 nM ≤ GI50 < 500 nM)
14 | C=CC(=O)Nc1cc(Nc2cc(N3OCC[C@@H]3c3cccc(C)c3F)ncn2)c(OC)cc1N1CCN(C2COC2)CC1 [compound 908, N-(5-((6-((R)-3-(2-fluoro-3-methylphenyl)isoxazolidine-2-yl)pyrimidine-4-yl)amino)-4-methoxy-2-(4-(oxetane-3-yl)piperazine-1-yl)phenyl) acrylamide] | A (GI50 < 50 nM)
15 | C=CC(=O)Nc1cc(Nc2cc(N3OCC[C@@H]3c3cccc(Cl)c3F)ncn2)c(OC)cc1N1CCC(N2CCN(CC)CC2)CC1 [compound 913, N-(5-((6-((R)-3-(3-chloro-2-fluorophenyl)isoxazolidine-2-yl)pyrimidine-4-yl)amino)-2-(4-(4-ethylpiperazine-1-yl)piperidine-1-yl)-4-methoxyphenyl) acrylamide] | A (GI50 < 50 nM)
16 | C=CC(=O)Nc1cc(Nc2cc(N3OCC[C@@H]3c3ccc(Cl)c(F)c3)ncn2)c(OC)cc1N1CC[C@H](N2CCOCC2)C1 [compound 365, N-(5-((6-((R)-3-(4-chloro-3-fluorophenyl)isoxazolidine-2-yl)pyrimidine-4-yl)amino)-4-methoxy-2-((S)-3-morpholinopyrolidine-1-yl)phenyl) acrylamide] | B (50 nM ≤ GI50 < 500 nM)
17 | C=CC(=O)Nc1cc(Nc2cc(N3OCC[C@H]3c3c(F)cccc3F)ncn2)c(OC)cc1N1CCC(N(C)C)CC1 [compound 308, N-(5-((6-((S)-3-(2,6-difluorophenyl)isoxazolidine-2-yl)pyrimidine-4-yl)amino)-2-(4-(dimethylamino)piperidine-1-yl)-4-methoxyphenyl) acrylamide] | C (500 nM ≤ GI50 < 5000 nM)
18 | C=CC(=O)Nc1cc(Nc2cc(N3OCC[C@@H]3c3ccc(F)cc3)ncn2)c(OC)cc1N1CCC(N2CC[C@@H](N(C)C)C2)CC1 [compound 810, N-(2-(4-((R)-3-(dimethylamino)pyrolidine-1-yl)piperidine-1-yl)-5-((6-((R)-3-(4-fluorophenyl)isoxazolidine-2-yl)pyrimidine-4-yl)amino)-4-methoxyphenyl) acrylamide] | A (GI50 < 50 nM)
